Results as given in patent publication US20030229906A1, “Methods and compositions for the treatment of disorders of HIV infection” (priority 2002, published 2003).

What was measured:
HIVAN in transgenic mice = conditions: by inhibiting cellular Cdk9, an enzyme required for HIV-1 Tat to induce LTR-mediated virus transcription; cited from earlier work
[1] = molecular target: Src tyrosine kinase (mouse) (UniProt P05480); experiment: cell-based or functional assay

Row | Molecule | effect on HIVAN in transgenic mice (HIVAN in transgenic mice) | specific activity of the Src tyrosine kinase (immune-complex kinase assay with [gamma-32P]-ATP and enolase, podocytes transduced with Nef or vector) [1] [fold]
1 | CN1CC[C@H](c2c(O)cc(O)c3c(=O)cc(-c4ccccc4Cl)oc23)[C@H](O)C1 [flavopiridol] | ameliorates HIVAN | 
2 | HIV-1 Nef |  | 2.3
